Results: patent US20150025233A1, “USE OF LIPID CONJUGATES IN THE TREATMENT OF DISEASES” (priority 2001, published 2015)
Like-named read-outs stand apart in the source and are kept apart here.

System: DTH-induced mice
Assay: Dermal DTH response, oxalozone-induced ear swelling in mice (Experiments 5.1-5.4)
Assay type: in vivo, mouse
Conditions: for inhibition at 3 µmol/kg: Mus musculus
Experimental: Three modes of administration were performed: 1) The Lipid-conjugate in saline was injected intraperitoneally daily beginning day 0 until day 6 (Table 5.1); 2) The Lipid-conjugate in saline was injected subcutaneously into the ear (adjacent to the challenged area) in two injections, either 3 h before application of oxalozone to the ear or 1 h after application of oxalozone to the ear (Table 5.2); 3) EtOH:H2O 1:1 was applied topically to both ears on top of the challenged area daily beginning day 0 until day 6 (Table 5.3); 4) the Lipid-conjugate was applied topically only to the right ear for 5 times 4-6 hours following the challenge (Table 5.4) using either 20 μL of 0.1% DEXPE in 50% EtOH or 20 μl of Dermovat (steroid ointment). In all experiments control Group A (late sensitized only) was treated by topical application of oxalozone to both sides of the ear 24 hours before measuring its swelling. […] Of particular interest are the results presented in Table 5.4, showing that although the topical administration of the drug was unilateral in both cases, the steroid affected both ears, while the topically applied Lipid-conjugate affected only the area to which it was applied, indicative of a lack of systemic infiltration of the Lipid-conjugate in this context.

[1] = Intraperitoneal, fully sensitized, 5 mg (15 μmol/kg)
[2] = Subcutaneous, fully sensitized, 1 mg (3 μmol/kg)
[3] = Unilateral topical, on right ear only, 3 μmol/kg, dermovat

## C[C@H]1C[C@H]2[C@@H]3CCC4=CC(=O)C=C[C@]4(C)[C@@]3(F)[C@@H](O)C[C@]2(C)[C@@]1(O)C(=O)CO [betamethasone]
[1]
  Percent inhibition of ear swelling: 74%
  Swelling after sensitization - Swelling of normal ear, Mean ± S.D. (n = 12): 6.5 ± 1.35 0.1 mm
Topical, fully sensitized, 3 μmol/kg, read-out: Percent inhibition of ear swelling
  inhibition at 3 µmol/kg: 60%
Unilateral topical, on right ear only, 3 μmol/kg, dermovat, read-out: Percent inhibition, Left ear
  inhibition at 3 µmol/kg: 63%
Unilateral topical, on right ear only, 3 μmol/kg, dermovat, read-out: Percent inhibition, Right ear
  inhibition at 3 µmol/kg: 63%
[2]
  Percent inhibition of ear swelling: 72%
  Swelling after sensitization - Swelling of normal ear, Mean ± S.D. (n = 12): 8.1 ± 1.19 0.1 mm
Topical, fully sensitized, 3 μmol/kg
  Swelling after sensitization - Swelling of normal ear, Mean ± S.D. (n = 12): 10.6 ± 0.84 0.1 mm
[3]
  Swelling after sensitization - Swelling of normal ear, Left ear, Mean ± S.D. (n = 10): 7.0 ± 1.0 0.1 mm
  Swelling after sensitization - Swelling of normal ear, Right ear, Mean ± S.D. (n = 10): 7.0 ± 1.0 0.1 mm
